“Also recorded” adds a separate entry of the source.

This is an account of results in patent US20150272928A1, “INDOLE DERIVATIVES” (UNIVERSITY OF CENTRAL LANCASHIRE, priority 2012, published 2015).

Data set [1] has as its system 1321N1 cells. In words: MTS assay, 1321N1 glioma cell line. Type of data set: cell-based. The settings on record: 48 h; for activity against the 1321N1 cell line (in words): MTS assay. On the procedure:
(§1) 1321N1 cells were maintained in Dulbeccos's Modified Eagle's Medium (DMEM) supplemented with 10% (v/v) foetal bovine serum (FBS) and 2 mM L-glutamine, while the U87MG cell line was maintained in Essential Minimum Eagle Medium (EMEM) supplemented with 10% (v/v) FBS, 2 mM L-glutamine, 1 mM sodium pyruvate and 1% (v/v) non-essential amino acids (NEAA) (Lonza, UK) in a 37° C. humidified incubator supplied with 5% CO2. The 1321N1 and the U87MG cells were trypsinized and cultured overnight at a cell density of 3500 cells/200 μl and 4000 cells/200 μl respectively in 96-well microtitre plates (Sarstedt, UK). The following day when the cells looked 50-60% confluent, each concentration of the commercial drugs and novel compounds mentioned above were added in quadruplicates and left for incubation for 48 hours. After 48 hours, 20 μl of the pre-warmed MTS reagent (Promega, UK) was added to each of the wells and the 96-well plates were incubated at 37° C. humidified incubator supplied with 5% CO2 for 60 min. At the end of 60 min, the absorbance was recorded at 490 nm using a Tecan GENios Pro® microplate reader. The concentration of compound that inhibits 50% of cell growth (IC50) compared to untreated vehicle controls containing ≦0.5% absolute ethanol was calculated by nonlinear regression analysis. Absolute ethanol was used in the vehicle controls as indole 4 was dissolved in absolute ethanol.

Data set [2] concerns U87MG cells. In words: MTS assay, U87MG glioma cell line. Format: cell-based. How it is done:
as §1

For data set [3], the system named is 1321N1 cells. In words: Reactive oxygen species detection assay (carboxy-H2DCFDA, flow cytometry), 1321N1 cells. The settings on record: for ROS induction / oxidative stress: shift of H2DCFDA fluorescence signal compared to control: 1321N1, 500 μM, 1 h, flow cytometry, positive control TBHP 100 μM. Format: cell-based. From the text:
(§2) The inventors hypothesised that the active indoles were acting through a radical-based mechanism, which was most likely related to the generation of reactive oxygen species (ROS).^[6] As such, the inventors chose the Image-iT™ LIVE Green Reactive Oxygen Species Detection Kit from Invitrogen Ltd, UK, which is able to detect reactive oxygen species (ROS) in live cells, to assess selected indoles. Oxidatively stressed cells, when labeled with the carboxy-H2DCFDA dye provided, should generate fluorescence which is detectable using a confocal microscope and flow cytometry. Various assays were therefore performed in accordance with the following protocols.
(§3) 1321N1 cells were maintained in Dulbeccos's Modified Eagle's Medium (DMEM) supplemented with 10% (v/v) foetal bovine serum (FBS) and 2 mM L-glutamine, while the U87MG cell line was maintained in Essential Minimum Eagle Medium (EMEM) supplemented with 10% (v/v) FBS, 2 mM L-glutamine, 1 mM sodium pyruvate and 1% (v/v) non-essential amino acids (NEAA) (Lonza, UK) in a 37° C. humidified incubator supplied with 5% CO2. The 1321N1 and the U87MG cells were trypsinized and cultured overnight at a cell density of 10^4 cells/well/ml and were seeded in 6 well plates (BD Biosciences, UK) and were allowed to attach overnight. 2 ml of this cell suspension was added into each well resulting into a final concentration of 20,000 cells/well. On the day of experiment, cells were labelled with sufficient amount of 25 μM carboxy-H2DCFDA dye and were incubated for 30 min at 37° C., protected from light. Cells were then treated with 500 μM of indole 4 and positive control [tert-butyl hydroperoxide (TBHP)](100 μM) and negative control (indole 2) (500 μM) for 60 mins. Cells were gently washed with Hank[…]s balanced salt solution (HBSS) warm buffer three times and then trypsinized, centrifuged and resuspended in 300 μl PBS. Cells were filtered through cell strainer caps (35 μm mesh) to obtain a single cell suspension and analysed using a FACSAria flow cytometer (BD Biosciences). The untreated vehicle controls contained ≦0.5% absolute ethanol and DMSO as indole 4 was dissolved in absolute ethanol while TBHP and indole 2 were dissolved in DMSO.
(§4) In the event, to confirm and quantify the amount of fluorescence (due to ROS) produced, glioma cell lines 1321N1 and U87MG were seeded in separate 6 well plates and were left overnight to attach. On the day of the experiment the carboxy-H2DCFDA dye was added to the cells which were incubated for 30 min in the dark. Indoles 2, 3, 4 and 7 (500 μM) were then added, in separate experiments, and left for 1 h incubation. Cells were thoroughly washed at each step to prevent background staining and they were imaged immediately after incubation.

Data set [4] has as its system U87MG cells. In words: Reactive oxygen species detection assay (carboxy-H2DCFDA, flow cytometry), U87MG cells. Type of data set: cell-based. The settings on record: 500 μM, 1 h, positive control TBHP 100 μM.
Text: as §2, §3, §4

The nature of data set [5]: Stability under acidic conditions. Type of data set: physicochemical.
Data set [6] deals with primary cell culture (IN859). In words: IC50 against primary cell culture IN859 from a glioblastoma multiforme patient biopsy. Format: cell-based. The following applies: cells from a biopsy from a glioblastoma multiforme patient. From the text:
Based on these preliminary results the inventors were keen to discover if the effects would also be observed against a primary cell culture (IN859) from cells obtained from a biopsy from a glioblastoma multiforme patient.

In data set [7] the test system is 1321N1 cells. In words: Acridine orange assay of acidic vesicular organelle (AVO) formation, 1321N1 cells. Format: cell-based. The following applies: 1321N1, 500 μM, 1 h, flow cytometry. On the procedure:
(§5) 1321N1 cells were maintained in Dulbeccos's Modified Eagle's Medium (DMEM) supplemented with 10% (v/v) foetal bovine serum (FBS) and 2 mM L-glutamine, while the U87MG cell line was maintained in Essential Minimum Eagle Medium (EMEM) supplemented with 10% (v/v) FBS, 2 mM L-glutamine, 1 mM sodium pyruvate and 1% (v/v) non-essential amino acids (NEAA) (Lonza, UK) in a 37° C. humidified incubator supplied with 5% CO2. The 1321N1 and the U87MG cells were trypsinized and cultured overnight at a cell density of 10^4 cells/well/ml and were seeded in 6 well plates (BD Biosciences, UK) and were allowed to attach overnight. 2 ml of this cell suspension was added into each well resulting into a final concentration of 20,000 cells/well. After 24 h of incubation, cells were treated with 500 μM of indole 4 for 60 min. After 60 min incubation with the compound the cells were stained with 3 μM acridine orange and incubated for 15 min at 37° C., protected from light. […] Cells were filtered through cell strainer caps (35 μm mesh) to obtain a single cell suspension and analysed using a FACSAria flow cytometer (BD Biosciences). […]
(§6) The glioma cells were seeded in 6 well plates and were left overnight to attach. The cells were then treated with indole 4 for 1 h, stained with acridine orange for 15 min, and were analysed by flow cytometry.

Data set [8] relates to U87MG cells. In words: Acridine orange assay of acidic vesicular organelle (AVO) formation, U87MG cells. Type of data set: cell-based. The settings on record: 500 μM, 1 h, flow cytometry. On the procedure: as §5, §6
Data set [9] deals with 1321N1 cells. In words: MTS assay, 1321N1 glioma cell line. Format: cell-based. The settings on record: 1321N1, co-treatment with ascorbic acid.
Where [10] appears, read: Homo sapiens, 1321-N1, average and standard deviation of four repeats, dash = IC50 value not reached.
The mark [11] stands for this setting: Homo sapiens, U-87 MG, 48 h, average and standard deviation of four repeats, dash = IC50 value not reached.
The mark [12] stands for this setting: average and standard deviation of four repeats, dash = IC50 value not reached.
[13] abbreviates: 48 h, average and standard deviation of four repeats, dash = IC50 value not reached.

Consider `OCc1c[nH]c2ccccc12` [Compound 1, (1H-indol-3-yl)methanol], for which the IC50 with 1321N1 cells [1] (setting [10]) was determined as 374 ± 2 µM; with U87MG cells [2] (setting [11]) it was 585 ± 2 µM. Further, in the data set on 1321N1 cells [1], the “activity against the 1321N1 cell line (in words)” value is “active”.

Turning to `c1ccc(-c2cc3ccccc3[nH]2)cc1` [Compound 2, 2-phenyl-1H-indole], in the data set with 1321N1 cells [1] (setting [12]), the “MTS assay IC50 values 1321N1” value is “does not reach its IC50”. For the same compound, the “activity against the 1321N1 cell line (in words)” value in the data set on 1321N1 cells [1] was “not able to inhibit the growth”. Besides, the “MTS assay IC50 values U87MG” value with U87MG cells [2] (setting [13]) was “does not reach its IC50”. Also, the IC50 in the data set with U87MG cells [2] (setting [11]) was over 400 µM. Besides, the inhibition at 400 µM in the data set with U87MG cells [2] (Homo sapiens, U-87 MG, U87MG, at 400 μM, 48 h, read-out: maximum growth inhibition) is 7%. In addition, the “ROS induction / oxidative stress: shift of H2DCFDA fluorescence signal compared to control” value (“ROS induction / oxidative stress: shift” below) in the data set with 1321N1 cells [3] and in the data set with U87MG cells [4] was “no shift was observed” in each case.

With `OCc1c(-c2ccccc2)[nH]c2ccccc12` [Compound 3, (2-phenyl-1H-indol-3-yl)methanol], the figures for the IC50 with 1321N1 cells [1] (setting [10]) and in the data set with U87MG cells [2] (setting [11]) were 111 ± 1 µM and 176 ± 1 µM, respectively. Besides, the “activity against the 1321N1 cell line (in words)” value in the data set with 1321N1 cells [1] is listed as “active”. For the same compound, the “ROS induction / oxidative stress: shift” value in the data set with 1321N1 cells [3] and in the data set on U87MG cells [4] was “shift of the fluorescence signal; also recorded: to a greater level than the positive control” throughout. For the same compound, the “stability under acidic conditions” value in data set [5] is “slightly unstable”.

On to `Oc1ccccc1-c1cc2ccccc2[nH]1` [Compound 4, 2-(1H-indol-2-yl)phenol], for which the figures for the IC50 (in the data set with 1321N1 cells [1] (setting [10]); with U87MG cells [2] (setting [11]); in data set [6]) were 445 ± 4 µM, 379 ± 4 µM and 398 ± 3 µM, respectively. Besides, the “activity against the 1321N1 cell line (in words)” value with 1321N1 cells [1] is “active”. Further, the “cell viability in the presence of ascorbic acid” value in the data set with U87MG cells [2] (MTS assay, U87MG, co-treatment with ascorbic acid) is “cell viability was unaffected”; with 1321N1 cells [9], “cell viability was unaffected”. Also, the “ROS induction / oxidative stress: shift” value in the data set on 1321N1 cells [3] and with U87MG cells [4] was “shift of the fluorescence signal; also recorded: to a greater level than the positive control” throughout. For the same compound, the “level of fluorescence (ROS) on co-treatment with ascorbic acid” value with 1321N1 cells [3] (1321N1, indole 4 500 μM plus ascorbic acid 100 μM, data not shown) is “less than the vehicle control cells alone”. Further, the “AVO formation (acridine orange red fluorescence)” value in the data set with 1321N1 cells [7] and with U87MG cells [8] was “increased amount of red fluorescence” throughout.

Take `O=Cc1c(-c2ccccc2)[nH]c2ccccc12` [Compound 6, 2-phenyl-1H-indole-3-carbaldehyde]: the “activity against the 1321N1 cell line (in words)” value with 1321N1 cells [1] is “inactive”. For the same compound, the “activity against the U87MG cell line (in words)” value in the data set on U87MG cells [2] (MTS assay, 48 h) was “inactive”.

For the compound `COc1ccccc1-c1cc2ccccc2[nH]1` [Compound 7, 2-(2-methoxyphenyl)-1H-indole, reference compound], the “activity against the 1321N1 cell line (in words)” value in the data set with 1321N1 cells [1] was “inactive”. In addition, the “activity against the U87MG cell line (in words)” value in the data set with U87MG cells [2] (MTS assay, 48 h) is “inactive”. In addition, the “ROS induction / oxidative stress: shift” value in the data set on 1321N1 cells [3] and in the data set on U87MG cells [4] was “no shift was observed” each time.

Take `N.N.[Cl][Pt][Cl]` [cisplatin]: the half-maximal inhibitory concentration (IC50) came to 11 ± 2 µM with 1321N1 cells [1] (setting [12]) and 310 ± 4 µM with U87MG cells [2] (setting [13]). Besides, the “activity against the 1321N1 cell line (in words)” value in the data set on 1321N1 cells [1] is listed as “active”.
